Test results reported in US20150196507A1, “CONTROL OF MILK PRODUCTION AND MAMMARY INVOLUTION” (Amelgo, LLC, priority 2009, published 2015).

Legend:
[1] = tested on: cultures of mammary tissues taken from a lactating mouse; assay: Trans-epithelial electrical resistance (TEER) of mouse mammary tissue cultures; type: cell-based; set-up: dose or concentration left out as unconfirmed; details: fluoxetine, measured at 48 hours
[2] = tested on: primary human breast epithelial cells; assay: TEER of human mammary cultures; type: cell-based; details: for TEER change (FIG. 3): combination read at 36 hours
From the text: FIG. 3 is a graphic illustration of a similar experiment performed on mammary gland cultures biopsied from primary human breast epithelial cells.

[3] = tested on: multiparous Holstein cows; assay: Intramammary infusion at dry-off in Holstein cows (milk yield, milk composition, plasma lactose); type: in vivo, cow; details: for milk yield decline: day one following initiation of treatments, 5 mg in 5 ml carrier per quarter, control down 7.5 kg; for drop in amount of milk versus cows not receiving any infusion: after the first of three daily infusions, FIG. 6
Procedure: In a set of experiments, forty-five multiparous Holstein cows milked three times daily and producing at least 20 kg/day were randomly assigned to once a day milking and one of three intramammary treatments in each quarter for three days. A control group of fifteen cows received 5 ml of a carrier of 9:1 sterile water and oil via infusion. […] The third group of fifteen cows received a treatment of 5 ml the carrier containing 5 mg of the precursor for serotonin synthesis (5-HTP) via infusion.
The milk yield decline was greater for the second group (down 9.5 kg) and the third group (down 10.0 kg) than that of the first group (down 7.5 kg) on day one following the initiation of treatments (P<0.01).
The amount of milk dropped close to 10% for those cows receiving an infusion of 5-HTP versus cows not receiving any infusion.
Milk lactose, protein, and fat percentage were not affected by treatments, but the milk sodium to potassium ratio increased to 2.8 in the second group on day two as compared to 1.44 in the first group and 1.78 in the third group, (P<0.01).

SMILES | TEER change (FIG. 2) [1] | TEER change (FIG. 3) [2] | reduction in TEER ([2]; FIG. 3) | plasma lactose increase compared to the other two groups ([3]; day 1 post-infusion, P<0.001) | milk yield decline ([3]; P<0.01) | drop in amount of milk versus cows not receiving any infusion ([3]; day two) | milk sodium to potassium ratio ([3]; day two, first (control) group 1.44, P<0.01)
NNCCc1ccccc1 [phenelzine] | small but significant increase in TEER | caused a decrease | – | – | – | – | –
CCN[C@@H](C)Cc1cccc(C(F)(F)F)c1 [dexfenfluramine] | decrease in TEER similar to that of the combination of phenelzine and fluoxetine | – | 50% | – | – | – | –
CNCCC(Oc1ccc(C(F)(F)F)cc1)c1ccccc1 (centres unmarked) [fluoxetine] | – | did not change TEER | – | increased two-fold | 9.5 kg | ~31% | –
N[C@@H](Cc1c[nH]c2ccc(O)cc12)C(=O)O [5-HTP, 5-hydroxytryptophan] | – | – | – | – | 10.0 kg | ~10% | 1.78
